Values of other authors in US8871800B2, “Statin and omega-3 fatty acids for reduction of Apo-B levels” (GlaxoSmithKline, LLC, priority 2006, dated 2014).

How the values were obtained:
[1] = test system: patients with hyperlipemia; settings: atorvastatin monotherapy 10 mg/day, 5 weeks; compared to baseline
[2] = test system: obese, insulin-resistant men with dyslipidemia; settings: atorvastatin monotherapy 40 mg/day, 6 weeks
[3] = test system: patients with familial hypercholesterolemia; settings: monotherapy (6 g/day Omacor or 40 mg/day lovastatin), 6 weeks
[4] = test system: patients with hypercholesterolemia; settings: lovastatin monotherapy 40 mg/day, 6 weeks

Row | SMILES | Apo-B levels [1] | HDL-C levels [1] | LDL-C levels [1] | triglyceride levels [1] | Apo-B levels [2] | Apo-B levels [3] | Apo-B levels [4] | HDL-C levels [4] | LDL-C levels [4] | triglyceride levels [4]
1 | CC(C)c1c(C(=O)Nc2ccccc2)c(-c2ccccc2)c(-c2ccc(F)cc2)n1CC[C@@H](O)C[C@@H](O)CC(=O)O [atorvastatin] | significantly decreased | significantly increased | significantly decreased | significantly decreased | significantly decreased |  |  |  |  | 
2 | CC[C@H](C)C(=O)O[C@H]1C[C@@H](C)C=C2C=C[C@H](C)[C@H](CC[C@@H]3C[C@@H](O)CC(=O)O3)[C@H]21 [lovastatin] |  |  |  |  |  | significantly reduced | significantly reduced | significant increases | significant decreases | significant decreases
